Reference: article PMC12455572, “Amphipathic Proline-Rich Cell Penetrating Peptides for Targeting Mitochondria” (ACS Chemical Biology, 2025)
Where a SMILES comes first, the peptide text is derived from it. [ ]: non-standard residue; d: D form. The star is where a group is joined. 5FAM = O=C1OC2(c3ccc(O)cc3Oc3cc(O)ccc32)c2ccc(C(=O)*)cc21; Pro(cis-4-guanidino) = NC(N)=N[C@@H]1CN[C@H](C(=O)O)C1; Cha = N[C@@H](CC1CCCCC1)C(=O)O; Ahx = NCCCCCC(=O)O

Assays:
MCF-7 cells = experiment: Colocalization of peptide with MitoTracker (Manders' coefficients from confocal images); assay type: cell-based; settings: MCF-7, after 24 h rest versus after 1 h incubation, Figure S7B; 10 µM for (ChaZZ)3, otherwise concentration not stated
Description: MCF-7 cells were seeded in a 8-μwell Ibidi plate at 25′000 cells/well in DMEM (100 μL, 10% FCS) and allowed to adhere overnight. The medium was removed, the cells were washed with PBS (200 μL, 1x) and incubated with the peptide solution at 20 μM, 10 μM, 5 μM or 2.5 μM in DMEM (200 μL, 1% FCS) for 1 h at 37 °C. The medium was removed, and the cells were washed with PBS (200 μL, 2x). MitoTracker Deep Red was distributed at 20 nM in DMEM (200 μL, 1% FBS) and the cells were incubated at 37 °C for 25 min. The medium was removed, and the cells were washed with PBS (200 μL, 2x). Hoechst333342 was distributed at 2 μM in DMEM (200 μL, 1% FBS) and the cells were incubated at 37 °C for 5 min. The cells were washed with PBS (200 μL, 2x), and FluoroBrite medium (200 μL) was added. The live cells were monitored on the confocal microscope at 37 °C, 5% CO2.
For the cells subjected to a 24 h rest period, the FluoroBrite medium was exchanged for DMEM (200 μL, 10% FBS) after the initial imaging, and the cells were kept in this medium for 24 h. The culture medium was then exchanged for FluoroBrite DMEM, and the cells were imaged again.
Fluorescence images of cells were collected using a Nikon Eclipse T1 (inverse) microscope equipped with a Yokogawa Confocal Scanner Unit CSU-W1-T2, containing a spinning disk (50 µm). The microscope is equipped with two EMCCD Andor iXon Ultra cameras. Emission in the blue channel (405 nm) was filtered with a 450/50 bandpass filter, emission in the green channel (488 nm) was filtered with a 525/50 bandpass, and the emission in the red channel (641 nm) was filtered with a 708/75 bandpass filter. Fluorescence images were obtained using an oil-immersion objective with a magnification of 100 × 1.4 CFI Plan Apo Oil.
Each experiment was repeated at least three times. The images acquired were adjusted using ImageJ2 software. Correlation coefficients were determined on entire images using JaCOP plugin.1 […]
MCF-7 cells were seeded in a 8-µwell Ibidi plate at 25’000 cells/well in DMEM (100 µL, 10% FCS) and allowed to adhere overnight. The medium was removed. The cells were washed with PBS (200 µL, 1x) and incubated with the peptide solution at 20 µM, 10 µM, 5 µM, or 2.5 µM in DMEM (200 µL, 1% FCS) for 1 h at 37 °C. The medium was removed, and the cells were washed with PBS (200 µL, 2x).
For imaging of mitochondria, MitoTracker Deep Red was added as described in the manuscript. […]
PBS (200 µL, 2x). For imaging of the nucleus, Hoechst333342 was added at (200 µL, 2 µM in DMEM, 1% FBS) followed by incubation of the cells at 37 °C for 5 min. The cells were washed with PBS (200 µL, 2x), and FluoroBrite medium (200 µL) was added. The live cells were monitored on the confocal microscope […]
MCF-7 cells were seeded in a 96-well plate at 7’500 cells/well in cell culture medium (200 µL, 10% FCS), and allowed to adhere overnight. The medium was removed, the cells were washed with PBS (100 µL, 1x) and incubated with the peptide solution at 20 µM, 10 µM, 5 µM, or 2.5 µM in DMEM (200 µL, 1% FCS) for 1 h at 37 °C. The medium was removed, and the cells were washed with PBS (100 µL, 1x). The MTT solution in DMEM (110 µL, 1.2 mM, 1% FBS) was added. The cells were incubated for 3 h at 37 °C. The supernatant was carefully removed, and DMSO (100 µL) was added. The plate was gently shaken for 30 min and the absorption of formazan solution at 570 nm was measured on the plate reader. […]

[1] = Stability of the peptides in cell lysate; assay type: in vitro ADME; settings: 200 µM peptide, 37 °C, RP-HPLC at 488 nm; for Stability in MCF-7 cell lysate: MCF-7 cell lysate 1 mg/mL protein in PBS, time points 0 min, 1 h and 24 h
Description: MCF-7 cells were grown to confluency in a T-175 flask. Cells were washed with PBS (12 mL, 4 °C) and subsequently scraped off into PBS (7 mL, 4 °C) and collected in a Falcon tube. The suspension was then sonicated for 3 sec at an amplitude of 30% followed by a 30 sec rest period, and the procedure was repeated three time. The insoluble fraction was removed by centrifugation for 10 min at 12.000 rcf, at 4 °C and the supernatant was transferred to a new tube. […]
Stability of the peptides in cell lysate
The peptides were added (final concentration of 200 µM) to the MCF-7 cell lysate, with a protein concentration adjusted to 1 mg/mL with PBS. Immediately after addition of the peptide to the cell lysate, a sample (80 µL) was taken as the t = 0 min time point. The sample was diluted in MeCN (1:1), kept on ice for 5 min and centrifuged (12.000 rcf, 10 min, 4 °C). The supernatant was filtered and analyzed by analytical RP-HPLC (at 488 nm) using the standard conditions (gradient 70 % to 45 % of B over 20 min at 25 °C).
The stability of the peptides was monitored at time points 0 min, 1 h and 24 h.

Question: Which results are given for `N=C(N)N[C@H]1C[C@@H](C(=O)N2C[C@@H](NC(=N)N)C[C@H]2C(=O)N[C@@H](CC2CCCCC2)C(=O)N2C[C@@H](NC(=N)N)C[C@H]2C(=O)N2C[C@@H](NC(=N)N)C[C@H]2C(=O)N[C@@H](CC2CCCCC2)C(=O)N2C[C@@H](NC(=N)N)C[C@H]2C(=O)N2C[C@@H](NC(=N)N)C[C@H]2C(=O)N[C@@H](CC2CCCCC2)C(N)=O)N(C(=O)[C@H](CC2CCCCC2)NC(=O)CCCCCNC(=O)c2ccc3c(c2)C(=O)OC32c3ccc(O)cc3Oc3cc(O)ccc32)C1` [(ChaZZ)3-Cha, CF-Ahx-(ChaZZ)3-Cha-NH2] ({5FAM-Ahx}-[Cha][Pro(cis-4-guanidino)][Pro(cis-4-guanidino)][Cha][Pro(cis-4-guanidino)][Pro(cis-4-guanidino)][Cha][Pro(cis-4-guanidino)][Pro(cis-4-guanidino)][Cha]-NH2)?
Answer: Fold change of MitoTracker overlap with the peptide (M2) after 24 h rest (MCF-7 cells): up to 3.6 fold; Fold change of peptide overlap with MitoTracker (M1) after 24 h rest (MCF-7 cells): more than 1.5 fold; metabolised at 24 h ([1]; human, cells or culture medium, lysate 1 mg/mL protein in PBS, after 24 h incubation, read-out: Fraction degraded in MCF-7 cell lysate): ~6%

Question: What does the source list for CF-Ahx-(ChaZZ)2-Cha-NH2?
Answer: Fold change of MitoTracker overlap with the peptide (M2) after 24 h rest (MCF-7 cells): 0.4 fold; Fold change of peptide overlap with MitoTracker (M1) after 24 h rest (MCF-7 cells): 1.3 fold; Stability in MCF-7 cell lysate [1]: degraded in the MCF-7 cell lysate over time

Question: For CF-Ahx-(ChaZZ)3-NH2, which “Fold change of peptide overlap with MitoTracker (M1) after 24 h rest” value (MCF-7 cells) is on record?
Answer: > 2 fold

Question: What about the “Stability in MCF-7 cell lysate” value [1] of the same compound?
Answer: stable
